Assay results as given in patent publication US12311058B2, “Single protein-encapsulated pharmaceutics for enhancing therapeutic effects” (priority 2018, dated 2025).

How the values were obtained:
[1] = mouse model, documented; cited from earlier work
[2] = system: breast cancer cell line, MDA-MB231; experiment: Xenograft model efficacy study, breast cancer MDA-MB231, in female athymic nude mice; conditions: iv; for % TGI, percent tumor growth inhibition compared to Group 1 / MTV (n) Day 20, median tumor volume: Doxorubicin 5, Composition 7 10, Mitoxantrone 3, Composition 6 6 mg/kg, Day 20
Procedure: An efficacy study against breast cancer tumor was carried out on the materials from Example 8 (Composition 7) and Example 7 (Composition 6).

[3] = Dialysis study on free form of doxorubicin, HSA/DOX mixture and Composition 7; type: physicochemical; conditions: PBS pH=7.4
Procedure: The dialysis tube was sealed and put into a glass beaker containing 100 mL of either PBS buffer (pH=7.4) or acetate buffer (pH=5.5) with a magnetic stirring bar. With constant stirring, aliquots (500 uL) at different time points were taken from the glass beaker and analyzed by UV spectrometer. […] It is most interesting to notice that HSA-encapsulated DOX is almost 3.5 times faster at pH=5.5 than at pH=7.4 for being dialyzed out from the dialysis tube.

[4] = congestive heart failure incidents; cited from earlier work

Compound | Maximum tolerated dose (MTD) [1] | Deaths NTR (non-treatment-related death) ([2]; qwk × 3, 20 day study) | Deaths TR (treatment-related death) ([2]; qwk × 3, 20 day study) | Mean BW Nadir, lowest group mean body weight as % change from Day 1 ([2]; qwk × 3, 20 day study) | Regressions CR (complete regression) ([2]; qwk × 3, 20 day study) | Regressions PR (partial regression) ([2]; qwk × 3, 20 day study) | % TGI, percent tumor growth inhibition compared to Group 1 ([2]; qwk × 3) | MTV (n) Day 20, median tumor volume ([2]; qwk × 3) | Day of Mean BW Nadir ([2]; mouse, in vivo) | Dialysis behaviour of free form [3] | Lifetime limit (cumulative dose) [4]
O=C1c2c(O)ccc(O)c2C(=O)c2c(NCCNCCO)ccc(NCCNCCO)c21 [Mitoxantrone, mitoxantrone] | 3 mg/kg | 0 | 0 | −0.2% | 0 | 0 | 27% | 498 (8) mm^2 | 8 days | – | –
COc1cccc2c1C(=O)c1c(O)c3c(c(O)c1C2=O)C[C@@](O)(C(=O)CO)C[C@@H]3O[C@H]1C[C@H](N)[C@H](O)[C@H](C)O1 [Doxorubicin, doxorubicin] | 5 mg/kg | 0 | 0 | – | 0 | 0 | 34% | 453 (8) mm^2 | – | precipitated in the dialysis bag due to the poor solubility at pH=7.4 | < 450 mg/m^2
